PubChem BioAssay (NCI)
Values joined by “and” are separate entries in the source; they are usually repeats but may differ in a detail not shown here. Identical values can stand only once.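 Grown in 96-well plates, cells were treated for 48 hours with each compound at five concentrations. Insufficient inhibition: endpoint recorded as highest concentration tested. GI50 marks 50% less growth. The concentration for full growth arrest is given as TGI.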 Where a SMILES comes first, the peptide text is derived from it. [ ]: non-standard residue; d: D form. The star is where a group is joined. ξ: configuration not given here. X3 = COc1ccc(C(N*)c2ccc(OC)cc2)cc1; NMeF = CN[C@@H](Cc1ccccc1)C(=O)O; NMeD = CN[C@@H](CC(=O)O)C(=O)O; NMeV = CN[C@H](C(=O)O)C(C)C; ξNMeV = CNC(C(=O)O)C(C)C; Boc = CC(C)(C)OC(=O)*; ξNMeA = CNC(C)C(=O)O; ξV = CC(C)C(N)C(=O)O

Tests used:
Experiment in all cases: NCI-60 cell line screen, 48 h
MALME-3M melanoma = system: MALME-3M melanoma
OVCAR-5 ovarian = system: OVCAR-5 ovarian
MDA-MB-435 = system: MDA-MB-435
RXF 393 renal = system: RXF 393 renal
MOLT-4 leukemia = system: MOLT-4 leukemia
NCI-H23 lung = system: NCI-H23 lung
SK-MEL-28 melanoma = system: SK-MEL-28 melanoma
NCI-H522 lung = system: NCI-H522 lung
T-47D breast = system: T-47D breast
OVCAR-3 ovarian = system: OVCAR-3 ovarian

| SMILES | GI50 (MALME-3M melanoma) [µM] | TGI (MALME-3M melanoma) | GI50 (OVCAR-5 ovarian) [µM] | TGI (OVCAR-5 ovarian) | GI50 (MDA-MB-435) [µM] | TGI (MDA-MB-435) [µM] | GI50 (RXF 393 renal) | TGI (RXF 393 renal) | GI50 (MOLT-4 leukemia) [µM] | TGI (MOLT-4 leukemia) | GI50 (NCI-H23 lung) [µM] | TGI (NCI-H23 lung) | GI50 (SK-MEL-28 melanoma) [µM] | TGI (SK-MEL-28 melanoma) | GI50 (NCI-H522 lung) [µM] | TGI (NCI-H522 lung) | GI50 (T-47D breast) | TGI (T-47D breast) | GI50 (OVCAR-3 ovarian) [µM] | TGI (OVCAR-3 ovarian) |
| --- | --- | --- | --- | --- | --- | --- | --- | --- | --- | --- | --- | --- | --- | --- | --- | --- | --- | --- | --- | --- |
| COc1ccc2nc3cc(Cl)ccc3c(NCCNCC(C)O)c2c1 (stereo unspecified) | 1.82 | 3.68 µM | 1.67 | 6.3 µM | 1.51 | 3.1 | 1.61 µM | 3.37 µM | 0.512 | 11.1 µM | 1.93 | 6.16 µM | 2.06 | 4.02 µM | 1.48 | 3.1 µM | 2.16 µM | 6.72 µM | 2.38 | 8.04 µM |
| Nc1n[nH]c2cc(F)c([C@@H]3Nc4ccc5[nH]ncc5c4[C@H]4C5CCC(C5)[C@@H]34)cc12 (stereo partly specified) | 1.47 | 28.3 µM | 0.326 | 24.4 µM | 0.0854 | 0.306 | 0.124 µM | 2.52 µM | 0.207 | > 50 µM | 0.193 | 7.77 µM | 1.37 | 21.9 µM | 0.106 | 2.08 µM | 9.96 µM | > 50 µM | 0.167 | 6.35 µM |
| N#Cc1c[nH]n2c(N=Nc3ccc(Cl)cc3)c(O)nc12 | 41.6 | > 100 µM | 84.9 | > 100 µM | 44.3 | > 100 | 29.7 µM | > 100 µM | 33.7 | > 100 µM | 18 | 51.2 µM | 44.4 | > 100 µM | 26.9 | > 100 µM | 10.1 µM | 56 µM | 40.3 | > 100 µM |
| Cc1nnc(NC(=O)c2nc(S(=O)(=O)Cc3ccc(F)cc3)ncc2Cl)s1 | 1.8 | 3.48 µM | 12.4 | 25.4 µM | 1.82 | 3.43 | 1.85 µM | 3.51 µM | 2.02 | 4.38 µM | 12.5 | 32.5 µM | 1.73 | 3.26 µM | 0.729 | 2.46 µM | 2.45 µM | 14.1 µM | 1.94 | 3.47 µM |
| CCOC(=O)C1=C(C)N(c2ccc(F)cc2F)[C@]2(C#N)C(O)=C(Cl)C(Cl)=C(O)[C@]12C#N | > 100 | > 100 µM | 20.5 | > 100 µM | > 100 | > 100 | > 100 µM | > 100 µM | > 100 | > 100 µM | > 100 | > 100 µM | > 100 | > 100 µM | > 100 | > 100 µM | > 100 µM | > 100 µM | > 100 | > 100 µM |
| CCCCCCCCCCCCC(O)c1ccc(C#CCCCCCCCCCO)o1 (stereo unspecified) |  |  | 20.9 | 39.2 µM | 18.9 | 34.3 | 17.9 µM | 35.3 µM | 4.69 | 26.7 µM | 26.4 | 48.8 µM | 37.2 | > 100 µM | 21 | 45.5 µM | 44.2 µM | > 100 µM | 19.1 | 34 µM |
| COc1cccc(C(=O)NC(c2ccc(C)cc2)c2cc(Cl)c3cccnc3c2O)c1 (stereo unspecified) | 1.42 | 15.6 µM | 1.13 | 24.4 µM | 0.56 | 23.7 | 0.736 µM | 3.44 µM | 0.622 | 8.05 µM | 0.552 | 22.2 µM | 0.743 | 17.1 µM | 0.291 | 1.65 µM | 0.517 µM | 12.1 µM | 0.346 | 18.6 µM |
| O=[N+]([O-])c1ccc(Cl)cc1N/N=C/c1ccnc2ccccc12 |  |  |  |  |  | > 100 |  | > 100 µM |  | > 100 µM |  | > 100 µM |  | > 100 µM |  | > 100 µM |  | > 100 µM |  | > 100 µM |
| CCOC(=S)SCC(=O)O |  | > 100 µM |  | > 100 µM |  | > 100 |  | > 100 µM |  | > 100 µM |  | > 100 µM |  | > 100 µM |  | > 100 µM |  | > 100 µM |  | > 100 µM |
| CN(C)c1cc(NN=C(c2ccc(O)cc2)c2ccc(O)cc2)c([N+](=O)[O-])cc1[N+](=O)[O-] | 13.7 | 28 µM | 17.2 | 32.4 µM | 3.02 | 14.3 | 11.3 µM | 26.9 µM | 3.37 | 23.2 µM | 6.46 | 23.1 µM | 2.85 | 10.5 µM | 10.5 | 38.4 µM | 3.34 µM | 17.2 µM | 2.53 | 9.81 µM |
| CCN(Cc1ccc(F)cc1)c1cc(Cl)c(CO)c(Cl)c1 | 17.8 | 36.1 µM | 4.22 | 17.7 µM | 17.9 | 37 | 8.71 µM | 21.6 µM | 16.6 | 44 µM | 13 | 28.8 µM | 17.3 | 31.5 µM | 10.8 | 25.7 µM | 7.47 µM | 26.5 µM | 11.7 | 24.3 µM |
| O=C(Nc1ccc(Oc2ccc(Nc3nc4ccccc4s3)cc2)cc1)Nc1ccc(Cl)c(C(F)(F)F)c1 | 1.8 | 3.79 µM | 1.64 | 3.61 µM | 1.48 | 3 | 1.8 µM | 4 µM |  |  | 1.06 | 2.77 µM | 1.57 | 3.2 µM | 1.51 | 3.39 µM | 1.21 µM | 3.96 µM | 1.54 | 3.98 µM |
| O=C(CCCSc1nc(-c2ccccc2)cc(-c2ccccc2)n1)NO | 1.95 | 9.71 µM | 1.37 | 5.64 µM | 2.05 | 10.1 | 0.525 µM | 3.05 µM | 1.1 | 10.2 µM | 2 | 6.11 µM | 1.95 | 7.2 µM | 1.86 | 9.51 µM | 1.76 µM | 22 µM | 1.6 | 6.16 µM |
| COc1ccc(C(NC(=O)C[C@@H](C(=O)N(C)C(C)C(=O)O)N(C)C(=O)[C@@H]2CCCN2C(=O)[C@H](C(C)C)N(C)C(=O)C(C(C)C)N(C)C(=O)[C@H](Cc2ccccc2)N(C)C(=O)C(NC(=O)OC(C)(C)C)C(C)C)c2ccc(OC)cc2)cc1 (stereo partly specified) (Boc-[ξV][NMeF][ξNMeV][NMeV]P[NMeD](X3)[ξNMeA]-OH) | 20.5 | 37.5 µM and 37.9 µM | 17.3 | > 37.5 µM and 31.5 µM |  | 20 |  | 18.5 µM | 17 | 19.3 µM and 43.7 µM | 23.1 | 37.5 µM and 53.4 µM | 17.1 | 13.6 µM and 30.9 µM | 17.5 | 27.4 µM and 31.3 µM |  | 36.7 µM | 18.2 | 27.4 µM and 32.9 µM |
| COCCOc1ccc(-c2nc3ccc(-c4nc5ccc(N6CCN(C)CC6)cc5[nH]4)cc3[nH]2)cc1 | 0.165 | 1.55 µM | 3.59 | 9.97 µM | 0.621 | 2.14 | 1.8 µM | 3.63 µM | 2.81 | > 100 µM | 1.21 | 5.09 µM | 0.478 | 2.21 µM | 0.341 | 2.36 µM | 1 µM | 9.09 µM | 0.621 | 3.13 µM |
| CCCCCCCCCCCCCCCC[N+](C)(C)Cc1ccccc1 | 1.24 | 2.72 µM |  |  | 1.54 | 2.91 | 0.606 µM and 0.306 µM | 1.97 µM and 1.35 µM |  |  |  |  | 1.68 | 3.19 µM |  |  | 1.31 µM and 1.48 µM | 5.62 µM and 6.1 µM | 1.21 | 2.53 µM |
| O=CNc1ccc2c(c1)C(=O)c1ccccc1-2 |  |  |  | > 100 µM |  | > 100 |  | > 100 µM |  | > 100 µM |  | > 100 µM |  | > 100 µM |  | > 100 µM |  | > 100 µM |  | > 100 µM |
| O=S(=O)(c1ccccc1)N1CCN(S(=O)(=O)c2ccccc2)c2ccccc21 |  | > 100 µM |  | > 100 µM |  | > 100 |  | > 100 µM |  |  |  | > 100 µM |  | > 100 µM |  | > 100 µM |  | > 100 µM |  | > 100 µM |
| CC1=C2C(=C[C@@](C)(CO)[C@@H]2O)C(=O)[C@](C)(O)C12CC2 |  | 0.0243 µM |  | 0.0664 µM and 0.0689 µM |  | 0.0312 |  | 0.018 µM | 0.0107 |  | 0.3 |  |  | 0.0339 µM and 0.0146 µM |  | 0.0108 µM |  | 0.0545 µM |  |  |
| CCCOc1cc2ccccc2cc1C(=O)Nc1nc(N)c2c(ccc3nccc32)[nH]1 | 1.13 | 2.62 µM | 0.911 | 2.98 µM | 0.0133 | 0.0432 | 0.0426 µM | 1.16 µM |  |  | 0.209 | 2.04 µM | 1.01 | 2.36 µM | 0.018 | 0.0426 µM | 0.499 µM | 3.17 µM | 0.0254 | 0.0819 µM |
| Cc1ccc(-n2c3nc(=O)[nH]c(=O)c-3cc3cc([N+](=O)[O-])ccc32)cc1 |  |  | 21.1 | 50.2 µM | 4.01 | 17.7 | 49.9 µM | > 100 µM | 6.61 | > 100 µM | 13.4 | 29.6 µM | 15.7 | 42.2 µM | 33.2 | 77.5 µM | 14.3 µM | 36 µM | 2.18 | 4.79 µM |
